Test results: patent US20240102016A1, “APPLICATION OF VEGFR GENE EXPRESSION INHIBITOR IN PREPARING PREPARATION OR AS PREPARATION FOR TREATING PSORIASIS” (priority 2022, published 2024)

Tests used:
Format in all cases: in vivo
[1] = test system: RASGRP1 downstream pathway; experiment: Western blot of RASGRP1 downstream pathway proteins in skin tissues of psoriatic mice; conditions: skin smeared with SU5205; compared with the IMQ-induced mice
Text: (§1) In the embodiment of the disclosure, psoriatic mice coated with VEGFR inhibitors are constructed as follows: dissolving the VEGFR inhibitor SU5205 in dimethyl sulfoxide (DMSO) solution to prepare stock solution, diluting the stock solution with cyclodextrin, and coating the stock solution with a concentration of […] (referred to a daily dosage per kilogram of body weight of the psoriatic mice) on the psoriatic mice. 7-8-week wild-type mice are taken with back hair shaved and an exposed skin area of 2 cm×2 cm. 150 μL of the VEGFR inhibitor solution is coated on the skin surface. The normal control mice are coated with control reagent (with 150 μL of DMSO and cyclodextrin). The psoriatic mice and the normal control mice are respectively coated with Imiquimod (IMQ) cream or control reagent VAS on the exposed skin in 4 h later of the above operation.
In the embodiment of the disclosure, the psoriatic mice subcutaneously injected with VEGF are constructed as follows: dissolving VEGF165 protein in DMSO solution to prepare stock solution, diluting the stock solution with cyclodextrin, and smearing the mice with the stock solution with a concentration of […]. 7-8-week wild-type mice are taken with back hair shaved and an exposed skin area of 2 cm×2 cm. 100 μL of the VEGF165 solution is injected subcutaneously the skin surface of the mice. The normal control mice are injected with control reagent subcutaneously (with 100 μL of DMSO and cyclodextrin). The psoriatic mice subcutaneously injected with VEGF165, and the normal control mice are respectively smeared IMQ cream or control reagent VAS on the exposed skin in 4 h later of the injections.

[2] = test system: IMQ-induced psoriatic mice; experiment: H&E staining of skin sections and PASI scores in IMQ-induced psoriatic mice; conditions: skin smeared with SU5205, 10 kg/kg/d, 150 μL, 4 h before IMQ cream; compared with the IMQ-induced mice
Text: as §1
(§2) In the embodiment of the disclosure, the psoriatic mice subcutaneously injected with VEGF are constructed as follows: dissolving VEGF165 protein in DMSO solution to prepare stock solution, diluting the stock solution with cyclodextrin, and smearing the mice with the stock solution with a concentration of […]. 7-8-week wild-type mice are taken with back hair shaved and an exposed skin area of 2 cm×2 cm. 100 μL of the VEGF165 solution is injected subcutaneously the skin surface of the mice. […]

[3] = test system: RASGRP1+T cells and IL-17A+T cells; experiment: Flow cytometry of RASGRP1+T cells and IL-17A+T cells in skin tissues of psoriatic mice; conditions: skin smeared with SU5205
Text: as §1, §2

O=C1Nc2ccccc2/C1=C/c1ccc(F)cc1 [SU5205]
active protein level of IL-1β in skin tissues [1]: significantly lower | active protein level of NF-κB in skin tissues [1]: significantly reduced | active protein level of phosphorylated AKT in skin tissues [1]: significantly reduced | psoriasis phenotypes (dorsal skin thickness, erythema, scaling; H&E staining and PASI scores) [2]: significantly reduced | IL-17A+T cells in skin tissues [3]: decrease significantly | Rasgrp1+T cells in skin tissues [3]: decrease significantly
